Data set [1] addresses T1, Isocitrate dehydrogenase [NADP] cytoplasmic (Homo sapiens, UniProt O75874, R132C). Nature of the data set: Inhibition of C-terminal Hexahistidine-tagged human recombinant IDH1 R132C mutant expressed in Escherichia coli BL21 (DE3) cells assessed as NADPH consumption in presence of alpha KG incubated for 1 hr by MST assay.
Data set [2] has as its target T2, Isocitrate dehydrogenase [NADP] cytoplasmic (Homo sapiens, UniProt O75874, R132H). Put plainly: Inhibition of C-terminal Hexahistidine-tagged human recombinant IDH1 R132H mutant expressed in Escherichia coli BL21 (DE3) cells assessed as NADPH consumption in presence of alpha KG incubated for 1 hr by MST assay.
A further data set has as its system TF-1. Put plainly: Anticancer activity against human TF-1 cells assessed as cell growth inhibition. The format is functional, cell-based.
Data set [3] addresses T3, Isocitrate dehydrogenase [NADP], mitochondrial (Homo sapiens, UniProt P48735).
T3 sequence (P48735 whole entry): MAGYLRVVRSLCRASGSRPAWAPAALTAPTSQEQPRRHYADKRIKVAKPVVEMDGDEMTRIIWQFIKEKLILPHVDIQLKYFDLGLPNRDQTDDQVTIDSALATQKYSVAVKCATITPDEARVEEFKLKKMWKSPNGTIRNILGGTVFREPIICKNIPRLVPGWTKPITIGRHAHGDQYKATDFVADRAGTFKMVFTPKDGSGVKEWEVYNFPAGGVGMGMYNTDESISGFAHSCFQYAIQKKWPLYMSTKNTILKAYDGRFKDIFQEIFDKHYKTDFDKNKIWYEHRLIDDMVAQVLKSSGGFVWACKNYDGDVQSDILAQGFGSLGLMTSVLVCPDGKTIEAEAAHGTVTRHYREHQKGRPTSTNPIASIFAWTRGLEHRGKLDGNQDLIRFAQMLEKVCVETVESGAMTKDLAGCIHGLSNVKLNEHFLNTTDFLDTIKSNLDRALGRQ
Nature of the data set: Inhibition of wildtype IDH2 (unknown origin).

Data set [4] addresses T2, Isocitrate dehydrogenase [NADP] cytoplasmic. Put plainly: Inhibition of human […] IDH1 R132H mutant expressed in Escherichia coli BL21 (DE3) cells incubated for 60 mins by fluorescence based analysis.
Data set [5] has as its target T4, Isocitrate dehydrogenase [NADP] cytoplasmic (Homo sapiens, UniProt O75874). Nature of the data set: Inhibition of IDH1 (unknown origin) expressed in Escherichia coli BL21 (DE3) cells using 2OG as substrate preincubated with compound for 2 hrs followed by substrate addition and measured after 1 hrs by spectrophotometric analysis.
The target of data set [6] is Isocitrate dehydrogenase [NADP], mitochondrial (Homo sapiens, UniProt P48735, R140Q). Put plainly: Inhibition of IDH2 R140Q mutant (unknown origin) in the presence of NADPH by fluorescence based analysis.
Data set [7] can be described thus: Selectivity index, ratio of IC50 for inhibition of wildtype IDH2 (unknown origin) to IC50 for inhibition of IDH2 R140Q mutant (unknown origin).
Data set [8] is described as follows: Brain to plasma ratio in mouse at 50 mg/kg, iv. The format is ADME, organism-based. The following applies: brain and plasma, read-out: BPR.
Data set [9] concerns the target T1, Isocitrate dehydrogenase [NADP] cytoplasmic. Put plainly: Inhibition of human […] IDH1 R132C mutant expressed in Escherichia coli BL21 (DE3) cells incubated for 60 mins by fluorescence based analysis.
The target in data set [10] is T4, Isocitrate dehydrogenase [NADP] cytoplasmic. Put plainly: Inhibition of human recombinant wildtype IDH1.
For data set [11], the target named is T2, Isocitrate dehydrogenase [NADP] cytoplasmic. Put plainly: Inhibition of human IDH1 R132H mutant.
In data set [12] the target is T1, Isocitrate dehydrogenase [NADP] cytoplasmic. Nature of the data set: Inhibition of IDH1 R132C mutant (unknown origin) expressed in Escherichia coli BL21 (DE3) cells.
Data set [13] has the same target. Nature of the data set: Inhibition of human N-terminal 6His-tagged IDH1 R132C mutant expressed in Escherichia coli Rosetta2 (DE3) in presence of alpha-ketoglutarate and NADPH by fluorescence based biochemical assay.
The target of data set [14] is T2, Isocitrate dehydrogenase [NADP] cytoplasmic. Put plainly: Inhibition of human recombinant IDH1 R132H mutant expressed in Escherichia coli BL21 (DE3) cells in presence of alpha-ketoglutarate and NADPH by fluorescence based biochemical assay.
The target is the same in data set [15]. Nature of the data set: Inhibition of wildtype human recombinant IDH1 R132H mutant heterodimer in presence of alpha-ketoglutarate and NADPH by fluorescence based biochemical assay.
Data set [16] concerns the target T4, Isocitrate dehydrogenase [NADP] cytoplasmic. Nature of the data set: Inhibition of N-terminal His-tagged wild type IDH1 (unknown origin).
For data set [17] the target is unchanged. Nature of the data set: Inhibition of wild type IDH1 (unknown origin).
Data set [18] addresses T2, Isocitrate dehydrogenase [NADP] cytoplasmic. Put plainly: Binding affinity to human recombinant IDH1 R132H mutant expressed in Escherichia coli BL21 (DE3) cells assessed as inhibition constant.
Data set [19] has the same target. Nature of the data set: Inhibition of N-terminal 6xHis-tagged IDH1 R132H mutant (unknown origin) expressed in Escherichia coli BL21 cells.
Data set [20] concerns the target T1, Isocitrate dehydrogenase [NADP] cytoplasmic. Put plainly: Inhibition of IDH1 R132C mutant (unknown origin) expressed in HEK293T cells assessed as inhibition of 2-HG generation measured after 48 hrs by LC-MS/MS analysis. The format is cell-based.
The target of data set [21] is T2, Isocitrate dehydrogenase [NADP] cytoplasmic. Nature of the data set: Inhibition of IDH1 R132H mutant (unknown origin) expressed in HEK293T cells assessed as inhibition of 2-HG generation measured after 48 hrs by LC-MS/MS analysis. The class given is cell-based.
Data set [22] concerns U-87 MG. Put plainly: Antiproliferative activity against human U-87 MG cells harboring IDH1 R132H mutant measured after 72 hrs by MTT assay. The class given is functional, cell-based, U-87MG ATCC.
In data set [23] the test system is U-87 MG. Nature of the data set: Antiproliferative activity against human U-87 MG cells assessed as reduction in cell growth by CCK-8 assay. The format is functional, cell-based, U-87MG ATCC. (In general: Formazan colour is commonly taken as a measure of viable cells.)
In data set [24] the test system is HT-1080. Put plainly: Antiproliferative activity against human HT-1080 cells harboring IDH1 […] mutant measured after 72 hrs by MTT assay. The following applies: HT-1080, 72 h. The class given is functional, cell-based.
In data set [25] the test system is HT-1080. Nature of the data set: Antiproliferative activity against human HT-1080 cells assessed as cell growth inhibition incubated for 48 hrs by sulforhodamine B assay. The format is functional, cell-based. The following applies: HT-1080, 48 h. (In general: The SRB assay estimates cell density from bound dye.)

T1 sequence (O75874 2-414 R132C limits assumed): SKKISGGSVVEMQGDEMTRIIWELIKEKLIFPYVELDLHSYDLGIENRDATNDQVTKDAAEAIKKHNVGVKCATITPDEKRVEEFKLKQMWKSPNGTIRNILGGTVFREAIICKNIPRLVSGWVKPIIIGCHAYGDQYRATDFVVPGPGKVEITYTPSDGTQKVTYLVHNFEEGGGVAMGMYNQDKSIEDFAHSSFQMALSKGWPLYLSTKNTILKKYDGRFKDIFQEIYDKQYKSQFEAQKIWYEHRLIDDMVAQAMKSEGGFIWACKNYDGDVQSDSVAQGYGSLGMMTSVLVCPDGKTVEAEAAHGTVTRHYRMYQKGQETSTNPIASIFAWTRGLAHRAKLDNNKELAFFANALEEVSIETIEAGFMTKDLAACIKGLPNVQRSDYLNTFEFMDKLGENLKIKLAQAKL
T2 sequence (O75874 2-414 R132H limits assumed): as the sequence (O75874 2-414 R132C limits assumed) above, with C131H counted along it
T4 sequence (O75874 whole entry): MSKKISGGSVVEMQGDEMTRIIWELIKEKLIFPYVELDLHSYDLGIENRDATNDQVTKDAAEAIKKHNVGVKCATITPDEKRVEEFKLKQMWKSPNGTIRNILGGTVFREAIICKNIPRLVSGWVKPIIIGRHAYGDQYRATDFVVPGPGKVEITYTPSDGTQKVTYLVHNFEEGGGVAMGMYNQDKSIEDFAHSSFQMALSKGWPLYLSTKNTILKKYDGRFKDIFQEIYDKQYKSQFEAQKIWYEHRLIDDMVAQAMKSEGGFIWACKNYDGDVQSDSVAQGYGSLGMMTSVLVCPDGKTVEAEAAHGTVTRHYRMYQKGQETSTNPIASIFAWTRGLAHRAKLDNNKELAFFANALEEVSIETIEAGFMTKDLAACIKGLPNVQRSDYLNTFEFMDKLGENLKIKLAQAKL
Chain of Isocitrate dehydrogenase [NADP], mitochondrial (Homo sapiens, UniProt P48735, R140Q) (P48735 40-452 R140Q limits assumed): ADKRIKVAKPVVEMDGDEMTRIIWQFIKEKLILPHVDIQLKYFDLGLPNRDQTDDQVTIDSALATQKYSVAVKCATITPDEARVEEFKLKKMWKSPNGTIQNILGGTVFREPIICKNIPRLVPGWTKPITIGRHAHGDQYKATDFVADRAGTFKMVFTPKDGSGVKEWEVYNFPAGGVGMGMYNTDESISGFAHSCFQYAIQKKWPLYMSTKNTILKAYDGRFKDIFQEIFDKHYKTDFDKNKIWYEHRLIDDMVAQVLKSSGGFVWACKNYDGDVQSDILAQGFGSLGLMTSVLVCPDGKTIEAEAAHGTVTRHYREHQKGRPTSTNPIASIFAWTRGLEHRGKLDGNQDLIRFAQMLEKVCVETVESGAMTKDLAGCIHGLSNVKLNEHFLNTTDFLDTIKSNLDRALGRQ

The term IC50 denotes the concentration needed to halve the response being measured. Regarding `CCN(CC)CCOc1ccc(/C(=C(\Cl)c2ccccc2)c2ccccc2)cc1` [ZUCLOMIPHENE], the half-inhibitory concentration (IC50) was 42300 nM in data set [1] and 50200 nM in [2].

In the case of `Cc1cn(C(=O)c2c(-c3c(Cl)cc(Cl)cc3Cl)noc2C(C)(C)F)c2cccc(/C=C/C(=O)O)c12` [SAFUSIDENIB], the IC50 was 29 nM in the data set with TF-1; greater than 10000 nM in data set [3]; 8.4 nM in data set [4]; greater than 10000 nM in data set [5]; greater than 10000 nM in data set [6]; 11 nM in data set [9]. Moreover, the IC50 in data set [10] was found to be 180 nM; in data set [11], 8.4 nM; in data set [12] it was 11 nM. For the same compound, the Ratio IC50 in [7] was less than 0.001. Besides, the Kp in [8] was 0.4.

Turning to `COc1c(C)cc(NC(=O)c2nn(Cc3ccc(F)cc3)c3c2CN(C(=O)c2ccc[nH]2)C[C@@H]3C(N)=O)cc1C`, the half-maximal inhibitory concentration (IC50) turned out to be 8.8 nM in data set [13], 15.2 nM in [14], 16.6 nM in [15] and 467 nM in data set [16].

As usually defined, the Ki is a measure of affinity in units of concentration, obtained from inhibition or displacement. In turn, `C=CC(C)(C)c1cc(/C=C/C(=O)c2ccc(O)cc2)c(OC)cc1O` [LICOAGROCHACONE A] returned a half-maximal inhibitory concentration (IC50) in data set [17] greater than 100000 nM. In addition, in data set [18], the Ki turned out to be 76900 nM.

Consider `CC(C)(O)CNc1nc(Nc2ccnc(C(F)(F)F)c2)nc(-c2cccc(C(F)(F)F)n2)n1` [ENASIDENIB], for which half-maximal inhibition in [19] (IC50) required 677 nM.

Regarding `COC(=O)C1CCC2=C(C1=O)C(c1c[nH]c3ccccc13)Nc1ccccc1N2` (configuration not stated), the IC50 in [20] was determined as 65400 nM; in data set [21], 55500 nM.

For the compound `N#Cc1ccnc(N2C(=O)CC[C@H]2C(=O)N(c2cncc(F)c2)[C@H](C(=O)NC2CC(F)(F)C2)c2ccccc2Cl)c1` [IVOSIDENIB], the IC50 in data set [3] came to 7200 nM; with U-87 MG [22], 19 nM; in the data set with U-87 MG [23], 19 nM; in the data set on HT-1080 [24] it was 8 nM; in the data set on HT-1080 [25] it was 8 nM.

The values are drawn from ChEMBL document CHEMBL5625159, “Challenges for the development of mutant isocitrate dehydrogenases 1 inhibitors to treat glioma” (Eur J Med Chem, 2023).
